One block for each molecule: values may come before it.
Columns and labels:
[1] = molecular target: T1, Solute carrier family 22 member 7 (Mus musculus, UniProt Q91WU2); assay: (§1) TP_TRANSPORTER: uptake in Xenopus laevis oocytes; format: functional, cell-based; settings: oocyte
T1 sequence (Q91WU2 whole entry): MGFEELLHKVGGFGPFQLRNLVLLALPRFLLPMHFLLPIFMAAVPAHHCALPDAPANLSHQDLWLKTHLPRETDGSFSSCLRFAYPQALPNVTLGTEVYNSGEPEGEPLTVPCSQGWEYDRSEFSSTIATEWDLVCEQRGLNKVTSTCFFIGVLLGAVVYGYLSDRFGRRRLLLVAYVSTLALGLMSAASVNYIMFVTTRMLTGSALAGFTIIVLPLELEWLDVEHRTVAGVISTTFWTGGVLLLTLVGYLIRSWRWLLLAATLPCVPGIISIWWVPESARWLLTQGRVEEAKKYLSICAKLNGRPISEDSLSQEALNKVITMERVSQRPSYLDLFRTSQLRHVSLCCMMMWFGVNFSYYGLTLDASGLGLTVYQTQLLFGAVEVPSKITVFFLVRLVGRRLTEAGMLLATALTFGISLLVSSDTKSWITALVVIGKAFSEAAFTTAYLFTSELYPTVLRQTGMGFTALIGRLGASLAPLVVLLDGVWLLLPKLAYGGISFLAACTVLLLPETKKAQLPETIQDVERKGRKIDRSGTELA

[2] = molecular target: T1, Solute carrier family 22 member 7; assay: TP_TRANSPORTER: inhibition of Glutarate uptake (Glutarate: 5 uM, Cefoperazone: 1000 uM) in Xenopus laevis oocytes; format: functional, cell-based; settings: oocyte
[3] = molecular target: T1, Solute carrier family 22 member 7; assay: TP_TRANSPORTER: inhibition of Glutarate uptake (Glutarate: 5 uM, Enalapril: 1000 uM) in Xenopus laevis oocytes; format: functional, cell-based; settings: oocyte
[4] = molecular target: T1, Solute carrier family 22 member 7; assay: TP_TRANSPORTER: inhibition of Glutarate uptake (Glutarate: 5 uM, Erythromycin: 1000 uM) in Xenopus laevis oocytes; format: functional, cell-based; settings: oocyte
[5] = molecular target: T1, Solute carrier family 22 member 7; assay: TP_TRANSPORTER: inhibition of Glutarate uptake (Glutarate: 5 uM, ICG: 1000 uM) in Xenopus laevis oocytes; format: functional, cell-based; settings: oocyte
[6] = molecular target: T1, Solute carrier family 22 member 7; assay: TP_TRANSPORTER: inhibition of Glutarate uptake (Glutarate: 5 uM, Oxaloacetate: 1000 uM) in Xenopus laevis oocytes; format: functional, cell-based; settings: oocyte
[7] = molecular target: T1, Solute carrier family 22 member 7; assay: TP_TRANSPORTER: inhibition of Glutarate uptake (Glutarate: 5 uM, BSP: 250 uM) in Xenopus laevis oocytes; format: functional, cell-based; settings: oocyte
[8] = substrate: CCCCC[C@H](O)/C=C/[C@H]1[C@H](O)CC(=O)[C@@H]1C/C=C\CCCC(=O)O; assay: as §1; format: functional, cell-based, Oocyte
[9] = substrate: O=C(O)CCCC(=O)O; assay: as §1; format: functional, cell-based, Oocyte

Molecule: C[C@@H]1Cc2c(Cl)cc(C(=O)N[C@@H](Cc3ccccc3)C(=O)O)c(O)c2C(=O)O1 [3R14S-OCHRATOXIN A]
Activity [1]: substrate [+]

Molecule: Oc1ncnc2[nH]ncc12 [ALLOPURINOL]
Activity [1]: substrate [+]

Activity [1]: substrate [+]
Molecule: O=C(O)CCC(=O)C(=O)O [ALPHA-KETOGLUTARIC ACID]

Activity [1]: substrate [+]
Molecule: Nc1ccc(C(=O)NCC(=O)O)cc1 [AMINOHIPPURIC ACID]

Molecule: CCN1CCN(C(=O)N[C@@H](C(=O)N[C@@H]2C(=O)N3C(C(=O)O)=C(CSc4nnnn4C)CS[C@H]23)c2ccc(O)cc2)C(=O)C1=O [CEFOPERAZONE]
Activity [2]: inhibitor [(at a rough estimate) 40 % of control]

Molecule: CCOC(=O)[C@H](CCc1ccccc1)N[C@@H](C)C(=O)N1CCC[C@H]1C(=O)O [ENALAPRIL]
Activity [3]: inhibitor [(at a rough estimate) 30 % of control]

Molecule: CC[C@H]1OC(=O)[C@H](C)[C@@H](O[C@H]2C[C@@](C)(OC)[C@@H](O)[C@H](C)O2)[C@H](C)[C@@H](O[C@@H]2O[C@H](C)C[C@H](N(C)C)[C@H]2O)[C@](C)(O)C[C@@H](C)C(=O)[C@H](C)[C@@H](O)[C@]1(C)O [ERYTHROMYCIN]
Activity [4]: inhibitor [(at a rough estimate) 20 % of control]

Molecule: CC1(C)C(/C=C/C=C/C=C/C=C2/N(CCCCS(=O)(=O)[O-])c3ccc4ccccc4c3C2(C)C)=[N+](CCCCS(=O)(=O)[O-])c2ccc3ccccc3c21.[Na+] [INDOCYANINE GREEN]
Activity [5]: inhibitor [(at a rough estimate) 30 % of control]

Molecule: O=C(O)CC(=O)C(=O)O [OXALOACETATE]
Activity [6]: inhibitor [(at a rough estimate) 45 % of control]

Molecule: O=C(O)c1ccccc1O [SALICYLIC ACID]
Activity [1]: is not a substrate [-]

Molecule: O=C1OC(c2ccc(O)c(S(=O)(=O)[O-])c2)(c2ccc(O)c(S(=O)(=O)[O-])c2)c2c(Br)c(Br)c(Br)c(Br)c21.[Na+].[Na+] [SULFOBROMOPHTHALEIN SODIUM]
Activity [7]: inhibitor [(at a rough estimate) 25 % of control]

Activity [1]: substrate [+]
Molecule: CCCC(CCC)C(=O)O [VALPROIC ACID]

B1: Solute carrier family 22 member 7 (Mus musculus) (protein)
chain: MGFEELLHKVGGFGPFQLRNLVLLALPRFLLPMHFLLPIFMAAVPAHHCALPDAPANLSHQDLWLKTHLPRETDGSFSSCLRFAYPQALPNVTLGTEVYNSGEPEGEPLTVPCSQGWEYDRSEFSSTIATEWDLVCEQRGLNKVTSTCFFIGVLLGAVVYGYLSDRFGRRRLLLVAYVSTLALGLMSAASVNYIMFVTTRMLTGSALAGFTIIVLPLELEWLDVEHRTVAGVISTTFWTGGVLLLTLVGYLIRSWRWLLLAATLPCVPGIISIWWVPESARWLLTQGRVEEAKKYLSICAKLNGRPISEDSLSQEALNKVITMERVSQRPSYLDLFRTSQLRHVSLCCMMMWFGVNFSYYGLTLDASGLGLTVYQTQLLFGAVEVPSKITVFFLVRLVGRRLTEAGMLLATALTFGISLLVSSDTKSWITALVVIGKAFSEAAFTTAYLFTSELYPTVLRQTGMGFTALIGRLGASLAPLVVLLDGVWLLLPKLAYGGISFLAACTVLLLPETKKAQLPETIQDVERKGRKIDRSGTELA
Km [8]: 0.0052 µM | Km [9]: 15.8 µM

Reference: ChEMBL document CHEMBL2074292, “Isolation, characterization and differential gene expression of multispecific organic anion transporter 2 in mice” (Mol Pharmacol, 2002)
